Legend:
[1] = tested on: platelet activation marker CD62P (P-selectin) on platelets; assay: Flow cytometric analysis of CD62P expression in diluted blood stimulated with a platelet stimulant and then fixed; format: cell-based, human; conditions: then fixed; for percentage of gated cells in P3 (% parent), CD62P: gate P3 set at 1% with IgG control, CD61-positive platelets; for median fluorescence of CD62P (P1 AND P2): whole population of CD61 positive cells, IgG control 2
Protocol: The inventors then set out to test the efficacy of the platelet stabilising composition by determining the expression levels of the platelet activation marker, CD62P (ie P-selectin), using flow cytometry.
Initially, an experiment was carried out in order to measure the level of expression of the platelet activation marker, CD62P, by flow cytometry in an IgG control sample. […] Platelets were gated in both P1 (top, centre in FIG. 1) and P2 (top, right in FIG. 1) in plots of a platelet identifier antibody, CD61-PerCP, against both side scatter (SSC) and forward scatter (FSC).
Approximately 3,000 CD61-positive platelet events were recorded. The CD61-positive cells were then drawn on a dot plot of CD62P against SSC (centre of FIG. 1). A frequency histogram of CD62P fluorescence against cell count was then used to quantify the percentage of cells from the parent population that were present in an interval gate P3 (bottom, left of FIG. 1). […] The gate was set at 1% using the appropriate IgG control sample and recorded in the statistics box (bottom right of FIG. 1). The median fluorescence of CD62P was also recorded for the whole population of CD61 positive cells (P1 AND P2).
Flow cytometric analysis was carried out to determine CD62P expression in an unstimulated sample of blood diluted with saline alone and then fixed.
Flow cytometric analysis was carried out to determine CD62P expression in a diluted sample of blood stimulated with adenosine diphosphate (ADP) and then fixed.
Flow cytometric analysis was carried out to determine CD62P expression in a diluted sample of blood stimulated with the thromboxane mimetic U46619 and then fixed.
Flow cytometric analysis was carried out to determine CD62P expression in a diluted sample of blood stimulated with thrombin receptor activating peptide (TRAP) and then fixed.

[2] = tested on: platelet activation marker CD62P; conditions: both groups where aspirin was added (healthy volunteers, patients on aspirin)
Protocol: Blood samples were obtained from (a) a group of healthy volunteers who were not being treated with aspirin, and (b) a group of patients who were on aspirin therapy. A CD62P stimulant combination of arachidonic acid and epinephrine, or arachidonic acid and epinephrine, in the presence of aspirin (as a control), were added to each blood sample for 4 minutes, followed by the stabilisation composition of the invention.

Compound | percentage of gated cells in P3 (% parent), CD62P [1] [%] | median fluorescence of CD62P (P1 AND P2) [1] | inhibition of CD62P expression [2]
Nc1ncnc2c1ncn2[C@@H]1O[C@H](COP(=O)(O)OP(=O)(O)O)[C@@H](O)[C@H]1O [ADP, adenosine diphosphate] | 70.8 | 365 | 
CCCCC[C@H](O)/C=C/[C@@H]1[C@@H](C/C=C\CCCC(=O)O)[C@H]2CO[C@@H]1C2 [U46619] | 95.3 | 1191 | 
CC(=O)Oc1ccccc1C(=O)O [aspirin] |  |  | completely inhibited
thrombin receptor activating peptide [TRAP] | 97.5 | 1646 | 
